Results as given in ChEMBL document CHEMBL3860093, “Cyclic peptide-based potent and selective SIRT1/2 dual inhibitors harboring Nε-thioacetyl-lysine” (Bioorg Med Chem Lett, 2016).

Legend:
[1] = species: Homo sapiens; test: Selectivity ratio of IC50 for recombinant human His6-tagged SIRT3 to IC50 for recombinant human GST or His6-tagged SIRT1
[2] = target: T1, NAD-dependent protein deacetylase sirtuin-1 (Homo sapiens, UniProt Q96EB6); test: Inhibition of recombinant human GST or His6-tagged SIRT1 using H2N-HK-[Nepsilon-acetyl-lysine]-LM-COOH as substrate incubated for 10 mins in presence of beta-NAD+ by HPLC based assay
T1 sequence (Q96EB6 whole entry): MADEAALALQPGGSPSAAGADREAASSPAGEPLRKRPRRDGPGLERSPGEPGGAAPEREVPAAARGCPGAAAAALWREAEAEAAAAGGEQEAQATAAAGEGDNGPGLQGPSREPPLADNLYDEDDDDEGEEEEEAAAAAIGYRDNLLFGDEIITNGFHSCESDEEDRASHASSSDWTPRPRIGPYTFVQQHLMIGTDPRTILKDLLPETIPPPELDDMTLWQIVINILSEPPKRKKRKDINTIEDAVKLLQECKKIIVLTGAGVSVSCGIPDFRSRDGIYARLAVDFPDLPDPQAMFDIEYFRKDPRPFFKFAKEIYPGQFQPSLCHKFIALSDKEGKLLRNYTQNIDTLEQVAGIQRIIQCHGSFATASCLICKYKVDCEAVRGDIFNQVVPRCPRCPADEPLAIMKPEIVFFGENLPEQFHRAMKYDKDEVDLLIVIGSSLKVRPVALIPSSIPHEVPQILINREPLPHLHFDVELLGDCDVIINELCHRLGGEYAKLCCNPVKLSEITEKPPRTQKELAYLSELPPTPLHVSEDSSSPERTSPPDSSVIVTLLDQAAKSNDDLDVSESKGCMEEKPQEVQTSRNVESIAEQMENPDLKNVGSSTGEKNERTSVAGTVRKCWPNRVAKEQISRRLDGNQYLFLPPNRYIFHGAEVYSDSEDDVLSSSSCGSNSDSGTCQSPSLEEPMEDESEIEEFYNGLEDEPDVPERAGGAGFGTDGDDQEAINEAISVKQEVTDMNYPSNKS

[3] = species: Homo sapiens; test: Selectivity ratio of IC50 for recombinant human His6-tagged SIRT3 to IC50 for recombinant human His6-tagged SIRT2
[4] = target: T2, NAD-dependent protein deacetylase sirtuin-2 (Homo sapiens, UniProt Q8IXJ6); test: Inhibition of recombinant human His6-tagged SIRT2 using H2N-HK-[Nepsilon-acetyl-lysine]-LM-COOH as substrate incubated for 12 mins in presence of beta-NAD+ by HPLC based assay
T2 sequence (Q8IXJ6 whole entry): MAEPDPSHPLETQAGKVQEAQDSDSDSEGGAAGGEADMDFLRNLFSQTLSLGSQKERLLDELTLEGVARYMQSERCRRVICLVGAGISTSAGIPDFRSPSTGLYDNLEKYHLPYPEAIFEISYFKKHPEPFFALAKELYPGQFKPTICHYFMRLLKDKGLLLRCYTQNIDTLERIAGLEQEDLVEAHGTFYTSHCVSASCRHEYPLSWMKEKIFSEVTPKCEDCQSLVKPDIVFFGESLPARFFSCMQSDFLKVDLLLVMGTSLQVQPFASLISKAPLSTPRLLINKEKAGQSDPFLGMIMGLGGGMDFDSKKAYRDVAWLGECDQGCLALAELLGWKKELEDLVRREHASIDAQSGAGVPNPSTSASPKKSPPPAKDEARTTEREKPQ

[5] = target: T3, NAD-dependent protein deacetylase sirtuin-3, mitochondrial (Homo sapiens, UniProt Q9NTG7); test: Inhibition of recombinant human His6-tagged SIRT3 using H2N-HK-[Nepsilon-acetyl-lysine]-LM-COOH as substrate incubated for 10 mins in presence of beta-NAD+ by HPLC based assay
T3 sequence (Q9NTG7 whole entry): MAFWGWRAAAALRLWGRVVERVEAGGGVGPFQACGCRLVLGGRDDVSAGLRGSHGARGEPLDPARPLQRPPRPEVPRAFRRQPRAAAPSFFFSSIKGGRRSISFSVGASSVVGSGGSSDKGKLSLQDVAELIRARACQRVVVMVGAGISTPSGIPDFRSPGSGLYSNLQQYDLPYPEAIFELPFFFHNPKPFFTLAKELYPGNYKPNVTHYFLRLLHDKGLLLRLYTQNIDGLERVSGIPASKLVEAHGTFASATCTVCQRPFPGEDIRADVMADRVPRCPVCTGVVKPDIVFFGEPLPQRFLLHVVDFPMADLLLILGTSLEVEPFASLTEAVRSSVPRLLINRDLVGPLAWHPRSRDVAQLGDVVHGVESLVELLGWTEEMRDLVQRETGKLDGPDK

[6] = Stability of compound assessed as Streptomyces griseus pronase-mediated compound hydrolysis up to 6 mins by HPLC analysis; type: ADME; settings: 0.1 h
[7] = target: NAD-dependent protein deacylase sirtuin-5, mitochondrial (Homo sapiens, UniProt Q9NXA8); test: Inhibition of recombinant human GST-tagged SIRT5 using CH3CONH-AR-[Nepsilon-succinyl-lysine]-ST-CONH2 as substrate incubated for 5 mins in presence of beta-NAD+ by HPLC based assay
NAD-dependent protein deacylase sirtuin-5, mitochondrial, sequence (Q9NXA8 whole entry): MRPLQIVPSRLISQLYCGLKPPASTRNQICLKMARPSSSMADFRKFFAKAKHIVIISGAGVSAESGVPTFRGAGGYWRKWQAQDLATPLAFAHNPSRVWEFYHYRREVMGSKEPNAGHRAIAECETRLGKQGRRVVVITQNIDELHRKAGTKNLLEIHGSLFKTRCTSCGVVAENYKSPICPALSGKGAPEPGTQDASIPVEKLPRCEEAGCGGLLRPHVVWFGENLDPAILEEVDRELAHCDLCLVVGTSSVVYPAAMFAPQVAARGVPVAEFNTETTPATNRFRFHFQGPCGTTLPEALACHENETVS

[8] = target: NAD-dependent protein deacylase sirtuin-6 (Homo sapiens, UniProt Q8N6T7); test: Inhibition of recombinant human His6-tagged SIRT6 using H2N-EALPK-[Nepsilon-myristoyl-lysine]-TGGPQ-CONH2 as substrate incubated for 12 mins in presence of beta-NAD+ by HPLC based assay
NAD-dependent protein deacylase sirtuin-6, sequence (Q8N6T7 whole entry): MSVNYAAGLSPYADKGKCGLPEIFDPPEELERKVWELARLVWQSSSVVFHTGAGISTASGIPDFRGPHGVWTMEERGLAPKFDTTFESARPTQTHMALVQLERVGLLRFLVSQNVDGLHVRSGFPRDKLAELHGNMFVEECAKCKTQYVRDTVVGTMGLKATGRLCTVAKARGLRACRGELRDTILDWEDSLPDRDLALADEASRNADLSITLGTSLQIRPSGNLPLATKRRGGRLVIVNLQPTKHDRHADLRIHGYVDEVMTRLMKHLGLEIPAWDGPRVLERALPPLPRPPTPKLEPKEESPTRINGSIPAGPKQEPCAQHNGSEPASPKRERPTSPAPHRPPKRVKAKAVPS

[9] = Stability of compound assessed as Streptomyces griseus pronase-mediated compound hydrolysis up to 60 mins by HPLC analysis; type: ADME; settings: 1 h
[10] = target: T4, NAD-dependent protein deacetylase sirtuin-1 (Homo sapiens) (UniProt Q96EB6); test: Inhibition of SIRT1 in human HCT116 cells assessed as increase in p53 acetylation at lysine-382 residue after 8 hrs by Western blot assay; type: cell-based; settings: HCT-116
T4 sequence (whole entry): T1 sequence (Q96EB6 whole entry)

[11] = Stability of compound assessed as Streptomyces griseus pronase-mediated compound hydrolysis up to 40 mins by HPLC analysis; type: ADME

Compound	Ratio IC50 [1]	IC50 [2] [µM]	Ratio IC50 [3]	IC50 [4] [µM]	IC50 [5] [µM]	Stability [6]	IC50 [7] [µM]	IC50 [8] [µM]	Stability [9]	inhibition [10]	Stability [11]
CC(=S)NCCCC[C@@H]1NC(=O)[C@H](Cc2ccc3ccccc3c2)NC(=O)CCCCCCC(=O)NC[C@@H](C(N)=O)NC1=O	4.9	0.71	2.3	1.5	3.5	–	–	–	–	–	–
CC(=S)NCCCC[C@@H]1NC(=O)CNC(=O)CCCCCCC(=O)NCCCC[C@@H](C(N)=O)NC1=O	0.9	3.84	0.9	3.9	3.39	–	–	–	–	–	–
CC(C(=O)Nc1cccc(/N=C/c2c(O)ccc3ccccc23)c1)c1ccccc1 (stereo unspecified) [SALERMIDE]	–	37.5	–	20.3	–	–	–	–	–	–	–
H-HKK(Ac)LM-OH	–	–	–	–	–	Unstable	–	–	–	–	–
CCCC[C@@H]1NC(=O)CCCCCCC(=O)NCCCC[C@@H](C(N)=O)NC(=O)[C@H](CCCCNC(C)=S)NC1=O	2.1	0.22	2	0.24	0.47	–	–	–	–	–	–
CN(C)CCCCC(=O)Nc1ccc(NC(=S)NC(=O)c2ccc(C(C)(C)C)cc2)cc1	–	–	–	–	25.7	–	–	–	–	–	–
CC(=S)NCCCC[C@@H]1NC(=O)[C@H](Cc2csc3ccccc23)NC(=O)CCCCCCC(=O)NCC[C@@H](C(N)=O)NC1=O	7.9	1.27	8.6	1.16	10	–	> 2000	> 1000	–	–	–
CC(=S)NCCCC[C@@H]1NC(=O)[C@H](Cc2csc3ccccc23)NC(=O)CCCCCCC(=O)NC[C@@H](C(N)=O)NC1=O	2.1	1.21	0.6	4.24	2.51	–	–	–	–	–	–
CC(=S)NCCCC[C@@H]1NC(=O)[C@H](Cc2ccc3ccccc3c2)NC(=O)CCCCCCC(=O)NCC[C@@H](C(N)=O)NC1=O	–	1.1	–	2.4	–	–	> 6000	> 4000	Stable	–	–
CCCC[C@@H]1NC(=O)CCCCCCC(=O)NCCC[C@@H](C(N)=O)NC(=O)[C@H](CCCCNC(C)=S)NC1=O	–	0.27	–	0.22	1.82	–	–	–	Stable	Dose-dependent effect	–
CCCC[C@@H]1NC(=O)CCCCCCC(=O)NCC[C@@H](C(N)=O)NC(=O)[C@H](CCCCNC(C)=S)NC1=O	1.8	0.82	3.5	0.42	1.48	–	–	–	–	–	–
CC(=S)NCCCC[C@@H]1NC(=O)[C@H](Cc2ccc3ccccc3c2)NC(=O)CCCCCCC(=O)NCCCC[C@@H](C(N)=O)NC1=O	3.4	0.57	1.4	1.4	1.94	–	–	–	–	–	–
CC(=S)NCCCC[C@@H]1NC(=O)[C@H](Cc2csc3ccccc23)NC(=O)CCCCCCC(=O)NCCC[C@@H](C(N)=O)NC1=O	4.7	0.68	6.6	0.48	3.18	–	> 300	> 2000	–	–	–
CC(=S)NCCCC[C@@H]1NC(=O)[C@H](Cc2csc3ccccc23)NC(=O)CCCCCCC(=O)NCCCC[C@@H](C(N)=O)NC1=O	7.6	0.5	4.3	0.89	3.82	–	> 200	> 1000	–	–	Stable
CC(=S)NCCCC[C@@H]1NC(=O)CNCCC(=O)NCCCC[C@@H](C(N)=O)NC1=O	2.6	22	2.3	24.3	56.9	–	–	–	–	–	–
CC(=S)NCCCC[C@@H]1NC(=O)[C@H](Cc2ccc3ccccc3c2)NC(=O)CCCCCCC(=O)NCCC[C@@H](C(N)=O)NC1=O	17.8	0.18	2.7	1.2	3.2	–	–	–	–	–	–
CCCC[C@@H]1NC(=O)CCCCCCC(=O)NC[C@@H](C(N)=O)NC(=O)[C@H](CCCCNC(C)=S)NC1=O	2.4	0.45	5.9	0.18	1.06	–	–	–	–	–	–
